A melting point compilation (Tetko et al.; mined from patent text by program, amines drawn as free bases though some values may be those of a salt)

Row | SMILES | melting point
1 | CCC(CC)(OC)c1ccc(Cl)c2nc3n(c12)CCCN3c1ccc(Cl)cc1Cl | 124 to 125 °C
2 | Cc1cc(=O)n(Cc2ccccc2)c2cc(OCc3nnn[nH]3)cc(OCc3nnn[nH]3)c12 | 246 to 249 °C
3 | N=C(N)Nc1nc(-c2csc(N)n2)cs1 | 274 °C
4 | CC(C)c1occc1S(=O)(=O)c1ccc(O)cc1 | 131 °C
5 | Fc1ccccc1-c1ccc(Cl)nn1 | 95 to 96 °C
6 | O=C(O)C(CCc1ccccc1)Oc1c(Br)cc(-c2ccc(-c3c(Cc4ccccc4)sc4ccccc34)cc2)cc1Br (centres undefined) | 85 to 87 °C
7 | CCc1nc(N)nc(N)c1-c1ccc(N(Cc2ccccc2)Cc2ccccc2)c([N+](=O)[O-])c1 | 197 to 199 °C
8 | CCC(C)COC(=O)C1(OC(=O)c2ccc(O)cc2)C=CC=CC1 (centres undefined) | 90.8 to 92.6 °C
9 | CCS(=O)(=O)Nc1cc(N=c2sc(=S)n3n2CCCC3)c(F)cc1Cl | 146 to 148 °C
10 | COCCNc1ccnc2c(NC(=O)c3c(Cl)cccc3Cl)cccc12 | 166 °C
11 | COc1ccc(Br)cc1-c1ccc2nonc2c1 | 135 to 137 °C
12 | CCCCc1c(C(=O)OCC)cc(O)c2ccc(OC)cc12 | 112 to 115 °C
13 | COc1ccccc1CNC(=O)c1ccc2nc(NCc3ccccc3OC)ccc2c1 | 108 °C
14 | Cc1c(NC(=O)c2ccc(OC[C@@H]3CCCO3)cc2)ccc2cc(CNC3CCCC3)[nH]c12 | 159 to 163 °C
15 | CCCCCCCCCCCCCCCCOCCSCCOC(=O)NCc1ccccn1 | 55 to 56 °C
16 | CC(C)Nc1cccnc1N1CCN(C(=O)c2ccc(C(=O)NCCCN3CCOCC3)cc2)CC1 | 103 °C
17 | O=C(O)c1cc(Cl)ccc1-n1cccc1 | 178 °C
18 | CCOC(=O)C1Cc2ccccc2N1C(=O)c1c(O)c2cc(OC)cc3c2n(c1=O)CCO3 (centres undefined) | 135 to 138 °C
19 | CCCCCCCCCCCCCCCCCCOc1cc(C(=O)O)cc(N(CC(=O)O)CC(=O)O)c1 | 149 to 155 °C
20 | C[C@]1(CN2CCC(NC(=O)OCc3ccc(C(F)(F)F)cc3)CC2)Cn2cc([N+](=O)[O-])nc2O1 | 141 to 144 °C

Row | SMILES | melting point
21 | COC=C(C(=O)OC)N(C)c1nc(-c2ccc(Cl)c(Cl)c2)cs1 | 96 to 98 °C
22 | CN(C)C(=O)C(C)(C)n1cc(-c2ccccc2)c(-c2ccccc2)n1 | 148 to 150 °C
23 | O=[N+]([O-])c1ccc(OC(c2ccc(F)cc2)(c2ccc(F)cc2)c2nccs2)cc1C(F)(F)F | 133 to 134 °C
24 | FC(F)(F)c1cc(Sc2ccc(Cl)cc2)c(-c2ccc(Cl)cc2)[nH]1 | 39 to 54 °C
25 | CC1(C)CCOc2cc(O)ccc21 | 88 to 88.5 °C
26 | O=C(O)CCCCCCCCCCCCO | 77 to 78 °C
27 | Clc1cccc(Oc2ccc(N3CCNCC3)nc2)c1 | 70 to 73 °C
28 | CC(C)(C)OC(=O)N1CCN(CCSc2nc3cc(F)c(F)cc3[nH]2)CC1 | 192 to 193 °C
29 | CCn1c(COC(N)=O)nc(C(C)C)c1Sc1cc(C#N)cc(C#N)c1 | 174 to 175 °C
30 | CP(C)(=O)COC(=O)c1cncn1C(c1ccccc1)c1ccccc1 | 174 °C
31 | NC(=O)c1nccn1C1Cc2cc(-n3ccnc3)ccc2C1=O (centres undefined) | 140 °C
32 | Cc1ccc(C)n1C(C)c1ncccc1F (centres undefined) | 82 to 84 °C
33 | Cc1nn(C)c(C)c1-c1ccc(OC2SCC(O)C(O)C2O)cn1 (centres undefined) | 132 °C
34 | COc1cc(Oc2cccc(C(F)(F)F)c2)nc(C(=O)NN=C(C)C)c1 | 134 to 136 °C
35 | COc1ccc(C#Cc2ccccc2)cc1 | 57 to 58 °C
36 | COc1ccc(CN2CCC(N=C(NC#N)N3CCc4ccccc4C3)CC2)cc1 | 135 to 137 °C
37 | CNC(=O)C1CC(c2ccc(-c3ccc(N4C[C@H](Cn5ccnn5)OC4=O)cc3F)cn2)=NO1 (some centres undefined) | 185 to 195 °C
38 | CCCC1CCC(=O)C=C1c1ccc(OCC(=O)O)c(Cl)c1Cl (centres undefined) | 177 to 178 °C
39 | CC(C)(C)OC(=O)CN1C(=O)[C@@H](N)CSc2ccccc21 | 86 to 89 °C
